Patent US20200131176A1, “SELECTIVE INHIBITORS OF CLINICALLY IMPORTANT MUTANTS OF THE EGFR TYROSINE KINASE” (CS Pharmatech Limited, priority 2017, published 2020)
“And” between values parts separate entries of the source, which are not always exact repeats. Equal entries are not always repeated. Where two headings read alike, the source gives them in different places.

Legend:
A431 cells = test: A431 inhibition assay (cell proliferation, CellTiter-Glo, 72 h); assay type: cell-based, human
Method: (§1) Then incubate the flasks at 37° C. until the cells detach.
(§2) Test compounds were dissolved in DMSO at 30 mM.
(§3) The final concentration was 1,000 cells/well. Add medium only as low control.
(§4) After 72 hours incubation, remove the plates from incubator and equilibrate at room temperature for 15 minutes. Incubate the CellTiter Glo reagents (Promega, G9243) at 37° C. before the experiment. The buffer was equilibrated to room temperature and used to dissolve the substrate. To determine the cell viability, add 40 μL of CellTiter-Glo reagent into each well to be detected (at 1:1 to culture medium). Then the place the plates at room temperature for 30 min followed by read on EnSpire (PerkinElmer).
(§5) For estimation of IC50, the luminescence readout are transformed to % Inhibition by applying the following equation:

[1] = biological target: T1, Exon 19 deletion EGFR (activating single mutant) in PC-9 cells (Homo sapiens, UniProt P00533, DEL746-750); test: Exon 19 deletion EGFR PC-9 cellular autophosphorylation assay (p-EGFR ELISA); assay type: cell-based; conditions: PC9, 2 h treatment, read-out: SM (PC9) IC50
T1 construct: cellular phosphorylation of endogenous p-EGFR; host or cells: PC9 (PC-9) human lung cell line
T1 sequence (P00533 with tags, fused parts or gaps DEL746-750): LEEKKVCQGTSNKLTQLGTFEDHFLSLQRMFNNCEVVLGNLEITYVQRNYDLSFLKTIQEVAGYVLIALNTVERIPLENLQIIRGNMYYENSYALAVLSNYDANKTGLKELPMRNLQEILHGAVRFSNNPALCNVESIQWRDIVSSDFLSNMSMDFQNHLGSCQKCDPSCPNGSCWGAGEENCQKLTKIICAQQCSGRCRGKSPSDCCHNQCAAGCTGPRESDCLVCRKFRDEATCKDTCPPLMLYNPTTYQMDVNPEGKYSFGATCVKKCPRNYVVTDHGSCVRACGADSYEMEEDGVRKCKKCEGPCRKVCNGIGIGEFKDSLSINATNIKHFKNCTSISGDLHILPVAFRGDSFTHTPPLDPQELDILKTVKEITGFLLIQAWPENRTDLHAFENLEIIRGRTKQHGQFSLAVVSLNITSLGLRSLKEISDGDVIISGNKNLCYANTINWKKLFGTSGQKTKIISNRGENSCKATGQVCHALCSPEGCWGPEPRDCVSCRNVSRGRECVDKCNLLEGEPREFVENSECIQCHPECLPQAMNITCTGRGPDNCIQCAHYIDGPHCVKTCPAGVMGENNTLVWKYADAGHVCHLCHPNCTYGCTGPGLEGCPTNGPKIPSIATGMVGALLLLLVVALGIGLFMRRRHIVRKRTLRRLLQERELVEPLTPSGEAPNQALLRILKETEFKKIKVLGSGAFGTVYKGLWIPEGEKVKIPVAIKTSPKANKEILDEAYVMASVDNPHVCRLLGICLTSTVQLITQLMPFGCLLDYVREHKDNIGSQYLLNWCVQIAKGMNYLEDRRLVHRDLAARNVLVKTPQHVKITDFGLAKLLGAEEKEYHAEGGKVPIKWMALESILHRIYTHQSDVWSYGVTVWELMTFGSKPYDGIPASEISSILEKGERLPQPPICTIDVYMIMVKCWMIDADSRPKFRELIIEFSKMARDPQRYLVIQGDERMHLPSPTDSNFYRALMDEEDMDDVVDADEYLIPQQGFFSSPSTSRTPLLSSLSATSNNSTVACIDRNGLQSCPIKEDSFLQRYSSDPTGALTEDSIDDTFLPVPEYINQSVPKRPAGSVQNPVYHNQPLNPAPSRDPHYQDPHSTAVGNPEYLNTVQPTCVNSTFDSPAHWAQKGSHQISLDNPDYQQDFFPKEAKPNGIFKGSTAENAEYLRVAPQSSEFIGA
Method: The human lung cell line PC9 (Exon 19 deletion EGFR) were obtained from the American type Culture Collection. […] Cells were grown in a humidified incubator at 37° C. with 5% CO2, Assays to measure cellular phosphorylation of endogenous p-EGFR in cell Iysates were carried out according to the protocol described in the R&D Systems DuoSet IC Human Phospho-EGF R ELISA (R&D Systems catalogue number # DYCI095). 40 μL of cells were seeded (10000 cells/well) in growth medium in Coming black, clear-bottomed 384-well plates and incubated at 37° C. with 5% CO2 overnight. […] Plates were incubated for a further 2 h, then following aspiration of medium, 40 μL× lysis buffer is added to each well. Greiner black high bind 384 well plates were coated with capture antibody and then blocked with 3% BSA. Following removal of block, 15 μL of lysate are transferred to the Greiner black high bind 384 well plates and incubated for 2 hours. Following aspiration and washing of the plates with PBS, 20 μL of detection antibody were added and incubated for 2 hours. […] The data obtained with each compound are exported into a suitable software package (such as Origin) to perform curve fitting analysis.

PC-9 cells = test: PC-9 growth inhibition assay (cell proliferation, CellTiter-Glo, 72 h); assay type: cell-based, human; conditions: cellular proliferation, PC9 cells, single mutant EGFR
Method: as §1, §2, §3, §4, §5

INSR = biological target: T2, INSR (Homo sapiens, UniProt P06213); test: INSR inhibition assay (Caliper mobility shift); assay type: biochemical; conditions: enzyme assay
T2 construct: purchased CARNA BIOSCIENCE 08-142
T2 sequence (P06213 1005-1382 limits assumed): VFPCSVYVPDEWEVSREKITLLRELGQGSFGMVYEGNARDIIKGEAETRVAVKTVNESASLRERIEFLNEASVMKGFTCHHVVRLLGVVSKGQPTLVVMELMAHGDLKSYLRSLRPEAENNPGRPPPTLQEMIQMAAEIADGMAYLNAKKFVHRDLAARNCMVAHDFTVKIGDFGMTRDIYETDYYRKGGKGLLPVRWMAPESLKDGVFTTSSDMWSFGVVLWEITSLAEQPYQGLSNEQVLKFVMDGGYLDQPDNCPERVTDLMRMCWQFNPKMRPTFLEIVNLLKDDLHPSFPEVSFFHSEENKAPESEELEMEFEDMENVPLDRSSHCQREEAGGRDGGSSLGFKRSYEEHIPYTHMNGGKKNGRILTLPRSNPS
Method: Test compound was dissolved in DMSO at 30 mM. […] 20 nL of these compounds DMSO dilutes were dispensed into a new 384-well assay plate by Echo 550. […] 15 μL of kinase assay buffer containing INSR protein and substrate was transferred to assay plate and incubate at RT for 30 minutes. Kinase assay buffer supplemented with substrate peptides was employed as low control to monitor the background. 40 μM ATP was prepared in kinase assay buffer containing and 5 μL of ATP solution was added to each well to start the reaction. The assay plate was incubated at 25° C. for 180 minutes and the reaction was stopped by adding 40 μL of 0.5 M EDTA.
The result was analyzed in the same manner as IGF-IR.

[2] = biological target: T3, L858R/T790M double mutant EGFR in H1975 cells (Homo sapiens, UniProt P00533, L858R/T790M); test: L858R/T790M double mutant H1975 autophosphorylation inhibition assay (ELISA); assay type: cell-based; conditions: cellular EGFR autophosphorylation, H1975, 2 h treatment; read-out: DM (H1975) IC50
T3 construct: endogenous in cells; host or cells: H1975 cells
T3 sequence (P00533 25-1210 T790M/L858R): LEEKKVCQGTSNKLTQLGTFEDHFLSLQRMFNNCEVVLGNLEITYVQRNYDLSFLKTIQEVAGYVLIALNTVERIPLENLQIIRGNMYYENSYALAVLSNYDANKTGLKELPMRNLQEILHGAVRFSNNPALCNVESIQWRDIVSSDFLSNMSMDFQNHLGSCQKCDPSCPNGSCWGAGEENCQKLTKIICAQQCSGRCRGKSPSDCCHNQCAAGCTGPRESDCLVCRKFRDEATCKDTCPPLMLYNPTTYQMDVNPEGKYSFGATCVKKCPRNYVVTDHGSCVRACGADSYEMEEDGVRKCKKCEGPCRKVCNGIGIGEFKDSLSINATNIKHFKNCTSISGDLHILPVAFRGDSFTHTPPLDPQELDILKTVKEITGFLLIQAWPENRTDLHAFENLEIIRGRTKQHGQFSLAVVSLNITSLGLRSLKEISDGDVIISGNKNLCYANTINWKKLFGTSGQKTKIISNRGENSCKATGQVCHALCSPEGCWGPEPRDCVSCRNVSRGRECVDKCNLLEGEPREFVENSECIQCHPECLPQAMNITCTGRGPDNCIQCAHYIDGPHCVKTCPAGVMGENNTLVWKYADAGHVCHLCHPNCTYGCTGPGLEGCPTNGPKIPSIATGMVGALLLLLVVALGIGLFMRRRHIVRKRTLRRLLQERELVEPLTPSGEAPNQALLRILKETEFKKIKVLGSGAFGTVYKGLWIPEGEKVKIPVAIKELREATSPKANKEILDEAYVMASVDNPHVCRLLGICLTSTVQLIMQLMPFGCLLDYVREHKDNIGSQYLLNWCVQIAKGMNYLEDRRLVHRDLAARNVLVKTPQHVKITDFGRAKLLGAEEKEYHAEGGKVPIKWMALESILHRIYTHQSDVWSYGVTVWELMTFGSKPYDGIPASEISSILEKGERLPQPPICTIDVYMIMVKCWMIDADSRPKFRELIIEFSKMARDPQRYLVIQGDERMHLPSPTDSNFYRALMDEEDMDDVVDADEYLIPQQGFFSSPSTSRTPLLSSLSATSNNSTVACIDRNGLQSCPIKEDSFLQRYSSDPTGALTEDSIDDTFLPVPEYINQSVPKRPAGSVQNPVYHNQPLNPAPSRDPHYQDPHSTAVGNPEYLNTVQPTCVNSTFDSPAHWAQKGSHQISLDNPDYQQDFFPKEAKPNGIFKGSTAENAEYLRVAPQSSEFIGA

[3] = biological target: Wild type EGFR in A431 cells (Homo sapiens, UniProt P00533); conditions: WT (A431) IC50 nM, cellular EGFR autophosphorylation, A431, 2 h treatment then EGF stimulation 10 min
Wild type EGFR in A431 cells, sequence (P00533 25-1210): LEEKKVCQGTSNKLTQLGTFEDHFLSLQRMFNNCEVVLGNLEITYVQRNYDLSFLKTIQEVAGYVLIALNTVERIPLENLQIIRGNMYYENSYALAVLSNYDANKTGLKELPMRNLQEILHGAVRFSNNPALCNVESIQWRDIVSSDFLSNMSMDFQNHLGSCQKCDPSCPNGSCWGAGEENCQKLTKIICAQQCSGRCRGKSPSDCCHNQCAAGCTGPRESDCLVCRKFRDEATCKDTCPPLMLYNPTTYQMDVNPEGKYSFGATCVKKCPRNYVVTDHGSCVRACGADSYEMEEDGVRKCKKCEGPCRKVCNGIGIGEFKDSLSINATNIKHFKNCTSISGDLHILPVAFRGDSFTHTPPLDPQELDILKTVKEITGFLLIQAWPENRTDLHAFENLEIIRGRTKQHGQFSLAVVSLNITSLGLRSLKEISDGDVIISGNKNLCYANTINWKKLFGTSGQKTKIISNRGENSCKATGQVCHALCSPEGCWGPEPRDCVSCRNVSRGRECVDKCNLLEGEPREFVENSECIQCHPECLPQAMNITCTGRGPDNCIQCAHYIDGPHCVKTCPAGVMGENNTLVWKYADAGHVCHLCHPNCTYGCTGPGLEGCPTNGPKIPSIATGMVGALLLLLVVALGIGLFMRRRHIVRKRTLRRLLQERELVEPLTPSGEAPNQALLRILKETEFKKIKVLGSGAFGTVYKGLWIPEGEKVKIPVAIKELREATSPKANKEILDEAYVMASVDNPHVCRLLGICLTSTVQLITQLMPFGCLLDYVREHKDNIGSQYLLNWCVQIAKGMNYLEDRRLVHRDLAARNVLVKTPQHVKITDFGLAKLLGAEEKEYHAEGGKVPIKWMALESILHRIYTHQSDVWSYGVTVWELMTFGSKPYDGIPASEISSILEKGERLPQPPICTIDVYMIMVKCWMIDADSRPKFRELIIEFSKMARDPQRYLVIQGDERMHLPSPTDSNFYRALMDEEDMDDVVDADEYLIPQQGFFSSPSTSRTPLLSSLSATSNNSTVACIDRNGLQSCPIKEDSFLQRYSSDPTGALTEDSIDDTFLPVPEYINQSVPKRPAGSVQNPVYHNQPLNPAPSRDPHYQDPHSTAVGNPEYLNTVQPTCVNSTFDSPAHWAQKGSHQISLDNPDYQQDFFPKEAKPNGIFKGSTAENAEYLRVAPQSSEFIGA

[4] = biological target: hERG channel (HEK 293 cell line stably expressing hERG channel) (Homo sapiens, UniProt Q12809); test: cell-based
IGF-1R = biological target: T4, IGF-1R (Homo sapiens, UniProt P08069); test: IGF-1R inhibition assay (Caliper mobility shift); assay type: biochemical; conditions: enzyme assay
T4 construct: purchased CARNA BIOSCIENCE 08-141
T4 sequence (P08069 959-1367 limits assumed): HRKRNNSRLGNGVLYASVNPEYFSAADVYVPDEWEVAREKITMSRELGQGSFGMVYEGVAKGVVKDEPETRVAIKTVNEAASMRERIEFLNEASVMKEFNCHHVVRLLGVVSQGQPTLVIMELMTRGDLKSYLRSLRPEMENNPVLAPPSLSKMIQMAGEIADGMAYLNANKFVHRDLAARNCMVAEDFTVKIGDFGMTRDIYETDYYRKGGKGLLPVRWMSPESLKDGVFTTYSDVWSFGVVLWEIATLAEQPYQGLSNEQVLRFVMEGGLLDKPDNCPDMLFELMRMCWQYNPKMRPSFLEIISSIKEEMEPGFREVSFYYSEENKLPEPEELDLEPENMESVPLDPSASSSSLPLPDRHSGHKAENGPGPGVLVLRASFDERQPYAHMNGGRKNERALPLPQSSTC
Method: Test compound was dissolved in DMSO at 30 mM. […] 20 nL of these compounds DMSO dilutes were dispensed into a new 384-well assay plate by Echo 550. […] 15 μL of kinase assay buffer containing IGF-1R protein and substrate was transferred to assay plate and incubate at RT for 30 minutes. Kinase assay buffer supplemented with substrate peptides was employed as low control to monitor the background. 40 μM ATP was prepared in kinase assay buffer containing and 5 μL of ATP solution was added to each well to start the reaction. The assay plate was incubated at 25° C. for 180 minutes and the reaction was stopped by adding 40 μL of 0.5 M EDTA.
Phosphorylated fluorescent-tagged peptides were differentiated from non-phosphorylated peptides by separating using Caliper EZ Reader II and the detection was directly converted to conversion ratio.

H1975 cells = test: H1975 inhibition assay (cell proliferation, CellTiter-Glo, 72 h); assay type: cell-based, human; conditions: cellular proliferation, double mutant EGFR
Method: H1975 Inhibition Assay (Cell Proliferation).
as §2, §3, §4, §5

[5] = test system: H1975 NSCLC cells xenograft (EGFR L858R/T790M double mutant); test: EGFR L858R/T790M double-mutant H1975 xenograft model; assay type: in vivo, nu/nu mice; conditions: day 10 after dosing; for Tumor Size: average ± SEM, n = 9
Method: Appropriately transformed cells, either from ATCC cell lines, known to carry the oncogene of interest, or from deliberate transfections, are suspended in appropriate media, and 5×10^6 or 1×10^7 cells are injected into the flank of nu/nu mice. Alternatively trochar placement of fragments of in vivo passaged tumors, usually about 1 mm^3 can be used to initiate the tumors. When tumors have reached an appropriate size for the experiment, usually in the 100-300 mg range, animals are randomized into matched groups of 6-10 mice, and tumor size and given vehicle or test article by perioral gavage once or twice daily. Tumor volumes are determined using calipers. The percentage increase in the volume of a xenograft tumor on day n versus day 0 (the day when dosing of the test compound began) is calculated as (tumor volume on day n−tumor volume on day 0/tumor volume on day 0)×100. The mean percentage of tumor growth inhibition in each drug-treated group relative to the vehicle-treated group is calculated as (1−mean percent increase of tumor volume in the drug-treated group/mean percent increase of the tumor volume in the vehicle-treated group)×100. Statistical significance is evaluated using a one-tailed t test.
Tumor size was measured on day 10 after dosing.

Mouse in vivo PK study [6] = conditions: mouse, plasma, male CD1 mice, 10 mg/kg PO; for half-life: read-out: T1/2 (PO) (converted)
Mouse in vivo PK study [7] = conditions: male CD1 mice, 1 mg/kg IV; for F: 10 mg/kg PO; for AUC / clearance / half-life: mouse, plasma; for half-life: read-out: T1/2 (IV) (converted)
Method: To determine the drug concentration in plasma of the compounds of the present disclosure following intravenous and oral administration in male CD 1 Mice, pharmacokinetic profile and PK parameters were obtained.
Test animals: healthy male CD1 mice (body weight 20-30 g, 18 mice, free access to food and water), provided by Sibeifu laboratory. […]
Samples collection: the healthy animals were used, weighed the bodyweight and marked at tail and cage card prior to dosing. Blood samples (0.03 mL per time point) were collected from dorsal metatarsal vein at 0.083, 0.25, 0.5, 1, 2, 4, 8, 24 h post dose for IV group and at 0.25, 0.5, 1, 2, 4, 8, 24 h post dose for PO group, the terminal time point was collected from heart (˜0.3 mL). The blood samples were put into the tube with heparin-Na coated and then put on the cold box, centrifuged at 4° C. 4000 g, 5 minutes immediately after collecting all samples per time point to get plasma. The plasma samples were stored in a freezer at −75±15° C. prior to analysis.
The drug concentration was determined by LC/MS/MS method, and the PK parameters were observed as follows.

[8] = Homo sapiens, A-431, 72 h, cellular proliferation, wild type EGFR, read-out: A431 IC50 (nM) WT
[9] = Homo sapiens, PC-9, 72 h, read-out: PC9 IC50 (nM) SM
[10] = Homo sapiens, NCI-H1975, 72 h, read-out: NCI-H1975 IC50 (nM) DM
[11] = NCI-H1975 cells, read-out: NCI-H1975 IC50 (nM) DM
[12] = cellular proliferation, wild type EGFR, read-out: A431 IC50 (nM) WT

Row | Compound | IC50 (A431 cells; [8]) [nM] | IC50 [1] | IC50 (PC-9 cells; [9]) [nM] | IC50 (INSR) [nM] | IC50 [2] [nM] | IC50 [3] [nM] | IC50 [4] [nM] | IC50 (IGF-1R) [nM] | IC50 (H1975 cells; [10]) [nM] | IC50 (PC-9 cells; read-out: PC9 IC50 (nM) SM) | IC50 (H1975 cells; [11]) | also measured
1 | C=CC(=O)Nc1cc(Nc2nccc(-n3nc(N(C)C)c4ncccc43)n2)c(OC(F)F)cc1N(C)CCN(C)C [Example 19] | 953 | 14.7 nM | 3.78 | 1750 | 5.35 | 92.8 | 1100 | 1680 | 2.82 | – | – | –
2 | C=CC(=O)Nc1cc(Nc2nccc(-c3cn(C)c4ccccc34)n2)c(OC)cc1N(C)CCN(C)C [AZD9291, reference compound] | – | – | – | […] | – | – | – | 455 | […] | 7.43 nM | […] | IC50 (A431 cells; read-out: A431 IC50 (nM) WT, cellular proliferation, wild type EGFR): […]; TGI (tumor growth inhibition) ([5]; 5 mg/kg): 107.63%; Tumor Size ([5]; 5 mg/kg): 123 ± 39 mm^3; IC50 (H1975 cells; NCI-H1975 cells, listed as AZD-9291, read-out: NCI-H1975 IC50 (nM) DM): […]
3 | C=CC(=O)Nc1cc(Nc2nccc(-c3c[nH]c4ccccc34)n2)c(OC)cc1N(C)CCN(C)C [AZD5104, reference compound] | – | 4.04 nM and 4.64 nM and 5.59 nM and 5.83 nM | – | 94.8 | – | – | – | 102 | – | 1.34 nM and 2.27 nM and 1.92 nM | 2.95 nM and 3.06 nM and 4.05 nM | IC50 (A431 cells; [12]): 95.2 nM; IC50 (PC-9 cells; listed as AZD-5104, read-out: PC9 IC50 (nM) SM): 1.57 nM; IC50 (H1975 cells; NCI-H1975 cells, listed as AZD-5104, read-out: NCI-H1975 IC50 (nM) DM): 3.9 nM
4 | C=CC(=O)Nc1cc(Nc2nccc(-n3nc(N(C)C)c4ccccc43)n2)c(OC(F)F)cc1N(C)CCN(C)C [Example 18, N-(4-(Difluoromethoxy)-5-((4-(3-(dimethylamino)-1H-indazol-1-yl)pyrimidin-2-yl)amino)-2-((2-(dimethylamino)ethyl)(methyl)amino)phenyl) acrylamide] | 1240 | 5.87 nM | 1.79 | 968 | 3.94 | 49.1 | 1680 | 1160 | 2.66 | – | – | –
5 | C=CC(=O)Nc1cc(Nc2nccc(-c3cc(C#N)c4ccn(C)c4c3)n2)c(OC)cc1N(C)CCN(C)C [Example 7, N-(5-((4-(4-Cyano-1-methyl-1H-indol-6-yl)pyrimidin-2-yl)amino)-2-((2-(dimethylamino)ethyl)(methyl)amino)-4-methoxyphenyl)acrylamide] | 2170 | 33 nM | 7.38 | 621 | 8.26 | 302 | 1090 | 390 | 4.76 | – | – | –
6 | C=CC(=O)Nc1cc(Nc2nccc(-c3cc(C#N)cc4c3ccn4C)n2)c(OC)cc1N(C)CCN(C)C [Example 4, N-(5-((4-(6-Cyano-1-methyl-1H-indol-4-yl)pyrimidin-2-yl)amino)-2-((2-(dimethylamino)ethyl)(methyl)amino)-4-methoxyphenyl)acrylamide] | 1460 | 10.9 nM | 1.91 | 965 | 1.98 | 69.5 | 2230 | 831 | 1.03 | – | – | AUC (Mouse in vivo PK study [6]): 225 ng·h/mL; Cmax (Mouse in vivo PK study [6]): 80.2 ng/mL; half-life (Mouse in vivo PK study [6]): 7.3 h; F (Mouse in vivo PK study [7]): 15%; AUC (Mouse in vivo PK study [7]): 96 ng·h/mL; clearance (Mouse in vivo PK study [7]): 183 mL/min/kg; half-life (Mouse in vivo PK study [7]): 0.576 h
7 | C=CC(=O)Nc1cc(Nc2nccc(-n3nc(N(C)C)c4ccsc43)n2)c(OC)cc1N(C)CCN(C)C [Example 5, N-(5-((4-(3-(Dimethylamino)-1H-thieno[2,3-c]pyrazol-1-yl)pyrimidin-2-yl)amino)-2-((2-(dimethylamino)ethyl)(methyl)amino)-4-methoxyphenyl) acrylamide] | 1300 | 17.1 nM | 4.86 | 2140 | 6.46 | 148 | 3490 | 1590 | 5.86 | 2.9 nM | 3.58 nM | IC50 (A431 cells; [12]): 2210 nM
8 | C=CC(=O)Nc1cc(Nc2nccc(-n3nc(N(C)C)c4cc(Cl)sc43)n2)c(OC)cc1N(C)CCN(C)C [Example 6, N-(5-((4-(5-Chloro-3-(dimethylamino)-1H-thieno[2,3-c]pyrazol-1-yl)pyrimidin-2-yl)amino)-2-((2-(dimethylamino)ethyl)(methyl)amino)-4-methoxyphenyl)acrylamide] | 1090 | 8.35 nM | 1.82 | 2310 | 7.52 | 72.5 | 2550 | 2090 | 2.6 | – | – | AUC (Mouse in vivo PK study [6]): 784 ng·h/mL; Cmax (Mouse in vivo PK study [6]): 117 ng/mL; half-life (Mouse in vivo PK study [6]): 2.67 h; TGI (tumor growth inhibition) ([5]; 5 mg/kg): 99.56%; TRTV/CRTV (relative tumor volume) ([5]; 5 mg/kg): 17.49%; Tumor Size ([5]; 5 mg/kg): 203 ± 24 mm^3; TGI (tumor growth inhibition) ([5]; 15 mg/kg): 114.04%; TRTV/CRTV (relative tumor volume) ([5]; 15 mg/kg): 5.34%; Tumor Size ([5]; 15 mg/kg): 63 ± 30 mm^3; TGI (tumor growth inhibition) ([5]; 30 mg/kg): 117.41%; TRTV/CRTV (relative tumor volume) ([5]; 30 mg/kg): 2.42%; Tumor Size ([5]; 30 mg/kg): 28 ± 9 mm^3; F (Mouse in vivo PK study [7]): 46.7%; AUC (Mouse in vivo PK study [7]): 168 ng·h/mL; clearance (Mouse in vivo PK study [7]): 100 mL/min/kg; half-life (Mouse in vivo PK study [7]): 0.92 h
9 | C=CC(=O)Nc1cc(Nc2nccc(-n3nc(N(C)C)c4ncccc43)n2)c(OCC(F)F)cc1N(C)CCN(C)C [Example 21, N-(4-(2,2-Difluoroethoxy)-5-((4-(3-(dimethylamino)-1H-pyrazolo[4,3-b]pyridin-1-yl)pyrimidin-2-yl)amino)-2-(N-(2-(dimethylamino)ethyl)-N-methylamino)phenyl)acrylamide] | 1710 | 23.8 nM | 7.21 | 2730 | 12.2 | 192 | 3230 | 1510 | 6.84 | – | – | –
10 | C=CC(=O)Nc1cc(Nc2nccc(-n3nc(NCC)c4ncccc43)n2)c(OCC(F)F)cc1N(C)CCN(C)C [Example 22, N-(4-(2,2-Difluoroethoxy)-2-((2-(dimethylamino)ethyl)(methyl)amino)-5-((4-(3-(ethylamino)-1H-pyrazolo[4,3-b]pyridin-1-yl)pyrimidin-2-yl)amino)phenyl)acrylamide] | 675 | 5.79 nM | 1.79 | 2530 | 4.54 | 35 | – | 5650 | 3.57 | – | – | –
